# pIC50, pKd: −log10 of the molar value. Active and inactive are the calls of the source. No cut-off for these calls is given here.
# Columns and labels:
# [1] = target: T1, Mitogen-activated protein kinase 1 (Homo sapiens, UniProt P28482); test: Inhibition of MEK U911-activated ERK2 (unknown origin) using ERKtide as substrate preincubated for 20 mins followed by substrate addition in presence of ATP at Km concentration after 20 mins by rapidfire mass spectrometry analysis
# [2] = target: T1, Mitogen-activated protein kinase 1; test: Inhibition of MEK U911-activated ERK2 (unknown origin) using ERKtide as substrate preincubated for 20 mins followed by substrate addition in presence of 1 mM ATP after 10 mins by rapidfire mass spectrometry analysis
# [3] = target: T2, Mitogen-activated protein kinase; ERK1/ERK2 (Homo sapiens, UniProt P27361+P28482); test: Inhibition of ERK1/2 in human A375 cells assessed as inhibition of RSK phosphorylation after 2 hrs; type: cell-based
# [4] = target: T1, Mitogen-activated protein kinase 1
# [5] = target: T1, Mitogen-activated protein kinase 1; remark: listed apart in the source
# [6] = target: T1, Mitogen-activated protein kinase 1; remark: listed apart in the source
# [7] = target: T1, Mitogen-activated protein kinase 1; remark: listed apart in the source
# [8] = target: T1, Mitogen-activated protein kinase 1; remark: listed apart in the source
# [9] = target: T1, Mitogen-activated protein kinase 1; remark: listed apart in the source
# [10] = target: T2, Mitogen-activated protein kinase; ERK1/ERK2; test: Inhibition of ERK1/2 in human A375 cells assessed as inhibition of ERK phosphorylation after 2 hrs; type: cell-based
# [11] = system: RAF proto-oncogene serine/threonine-protein kinase (Homo sapiens), P04049 [Y340D,Y341D]; test: Inhibition of recombinant human GST-tagged c-RAF1 Y340D/Y341D mutant catalytic domain expressed in baculovirus expression system at 1 uM relative to control
# Chain of RAF proto-oncogene serine/threonine-protein kinase (Homo sapiens), P04049 [Y340D,Y341D] (P04049 whole entry Y340D/Y341D, the tested form may be a part): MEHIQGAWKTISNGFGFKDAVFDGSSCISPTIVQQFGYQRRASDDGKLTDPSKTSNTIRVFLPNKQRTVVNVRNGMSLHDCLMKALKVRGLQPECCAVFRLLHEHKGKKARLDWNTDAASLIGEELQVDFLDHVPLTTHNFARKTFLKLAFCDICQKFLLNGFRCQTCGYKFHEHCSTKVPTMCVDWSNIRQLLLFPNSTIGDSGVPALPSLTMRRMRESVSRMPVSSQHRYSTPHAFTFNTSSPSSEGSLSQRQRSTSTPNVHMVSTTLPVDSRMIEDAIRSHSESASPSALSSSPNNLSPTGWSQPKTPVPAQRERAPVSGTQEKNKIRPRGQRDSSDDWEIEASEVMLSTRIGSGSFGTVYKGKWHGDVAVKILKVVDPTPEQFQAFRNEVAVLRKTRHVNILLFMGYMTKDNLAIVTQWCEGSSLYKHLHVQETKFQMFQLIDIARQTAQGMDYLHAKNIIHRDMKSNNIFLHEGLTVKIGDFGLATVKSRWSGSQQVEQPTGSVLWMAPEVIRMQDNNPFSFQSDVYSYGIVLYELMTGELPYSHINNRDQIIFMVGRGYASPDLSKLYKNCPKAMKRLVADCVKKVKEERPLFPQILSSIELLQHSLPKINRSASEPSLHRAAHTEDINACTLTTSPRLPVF
# [12] = target: Serine/threonine-protein kinase B-raf (Homo sapiens) (UniProt P15056); test: Inhibition of recombinant full length GST-tagged human BRAF1 expressed in baculovirus expression system at 1 uM relative to control
# [13] = target: Dual specificity mitogen-activated protein kinase kinase 2 (Homo sapiens) (UniProt P36507); test: Inhibition of recombinant full length his-tagged human MEK2 expressed in baculovirus expression system at 1 uM relative to control
# Chain of Dual specificity mitogen-activated protein kinase kinase 2 (Homo sapiens) (P36507 whole entry, the tested form may be a part): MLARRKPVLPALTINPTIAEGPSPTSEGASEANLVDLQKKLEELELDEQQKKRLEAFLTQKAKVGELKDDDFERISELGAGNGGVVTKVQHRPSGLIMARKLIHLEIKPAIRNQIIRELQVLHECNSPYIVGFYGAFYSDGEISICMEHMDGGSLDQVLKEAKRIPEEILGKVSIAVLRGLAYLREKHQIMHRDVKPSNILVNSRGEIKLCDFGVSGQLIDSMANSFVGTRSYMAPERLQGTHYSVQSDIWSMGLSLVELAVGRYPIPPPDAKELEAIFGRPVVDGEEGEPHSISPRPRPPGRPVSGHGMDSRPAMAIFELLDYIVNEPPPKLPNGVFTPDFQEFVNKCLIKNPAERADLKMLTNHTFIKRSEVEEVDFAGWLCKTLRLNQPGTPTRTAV
# [14] = target: Dual specificity mitogen-activated protein kinase kinase 1 (Homo sapiens) (UniProt Q02750); test: Inhibition of recombinant full length His-tagged human MEK1 expressed in baculovirus expression system at 1 uM relative to control
# Chain of Dual specificity mitogen-activated protein kinase kinase 1 (Homo sapiens) (Q02750 whole entry, the tested form may be a part): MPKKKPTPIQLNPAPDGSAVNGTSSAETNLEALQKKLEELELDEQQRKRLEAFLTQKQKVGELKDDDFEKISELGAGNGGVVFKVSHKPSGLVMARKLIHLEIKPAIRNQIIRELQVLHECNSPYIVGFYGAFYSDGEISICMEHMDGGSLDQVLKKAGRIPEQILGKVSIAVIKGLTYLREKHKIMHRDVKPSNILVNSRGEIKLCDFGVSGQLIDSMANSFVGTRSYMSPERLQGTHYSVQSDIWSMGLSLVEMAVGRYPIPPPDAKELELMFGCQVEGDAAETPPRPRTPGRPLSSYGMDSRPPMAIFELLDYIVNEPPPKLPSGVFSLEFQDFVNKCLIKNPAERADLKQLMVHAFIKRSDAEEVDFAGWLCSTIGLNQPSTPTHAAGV
# [15] = target: Mitogen-activated protein kinase 15 (Homo sapiens) (UniProt Q8TD08); test: Binding affinity to recombinant human N-terminal 4xFLAG-tagged/C-terminal His8-fused ERK7 N-terminal domain (M1 to R354 residues) expressed in Sf9 insect cells
# Chain of Mitogen-activated protein kinase 15 (Homo sapiens) (Q8TD08 whole entry, the tested form may be a part): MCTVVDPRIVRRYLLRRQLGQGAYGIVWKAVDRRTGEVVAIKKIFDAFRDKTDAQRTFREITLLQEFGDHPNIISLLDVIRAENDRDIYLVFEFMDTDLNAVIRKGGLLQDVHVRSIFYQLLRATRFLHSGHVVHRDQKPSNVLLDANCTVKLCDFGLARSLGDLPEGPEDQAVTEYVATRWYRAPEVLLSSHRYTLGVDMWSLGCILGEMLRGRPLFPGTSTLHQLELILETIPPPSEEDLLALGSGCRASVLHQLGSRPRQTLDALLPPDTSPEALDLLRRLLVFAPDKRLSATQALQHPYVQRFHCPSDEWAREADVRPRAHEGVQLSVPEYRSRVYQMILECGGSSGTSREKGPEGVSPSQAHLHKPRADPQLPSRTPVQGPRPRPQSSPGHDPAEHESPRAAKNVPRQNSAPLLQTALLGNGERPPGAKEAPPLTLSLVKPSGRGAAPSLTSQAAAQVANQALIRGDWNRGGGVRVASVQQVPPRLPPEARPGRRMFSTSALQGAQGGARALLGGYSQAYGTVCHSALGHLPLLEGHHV
# [16] = target: NUAK family SNF1-like kinase 1 (Homo sapiens, UniProt O60285); test: Inhibition of recombinant full length human His-tagged ARK5 expressed in baculovirus expression system
# Chain of NUAK family SNF1-like kinase 1 (O60285 whole entry): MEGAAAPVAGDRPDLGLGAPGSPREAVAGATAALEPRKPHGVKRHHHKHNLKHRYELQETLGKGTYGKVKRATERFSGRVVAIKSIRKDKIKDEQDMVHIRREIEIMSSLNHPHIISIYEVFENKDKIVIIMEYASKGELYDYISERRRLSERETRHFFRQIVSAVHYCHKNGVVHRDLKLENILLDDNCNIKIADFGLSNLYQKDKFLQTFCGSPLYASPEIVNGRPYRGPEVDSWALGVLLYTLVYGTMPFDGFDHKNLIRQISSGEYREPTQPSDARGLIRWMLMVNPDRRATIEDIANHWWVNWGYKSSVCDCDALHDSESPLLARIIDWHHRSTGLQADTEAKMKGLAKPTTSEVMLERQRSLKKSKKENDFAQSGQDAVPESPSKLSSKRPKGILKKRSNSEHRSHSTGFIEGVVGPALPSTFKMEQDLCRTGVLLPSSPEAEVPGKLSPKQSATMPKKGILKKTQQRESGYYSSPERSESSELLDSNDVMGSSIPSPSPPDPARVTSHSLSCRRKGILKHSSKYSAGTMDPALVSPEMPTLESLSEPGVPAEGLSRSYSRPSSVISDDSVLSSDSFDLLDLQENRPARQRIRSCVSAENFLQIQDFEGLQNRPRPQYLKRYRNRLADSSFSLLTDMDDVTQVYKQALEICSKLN
# [17] = target: T3, Cyclin-dependent kinase 5/CDK5 activator 1 (Homo sapiens, UniProt Q00535); test: Inhibition of recombinant full length human GST/His-tagged CDK5/p25 expressed in baculovirus expression system
# T3 sequence (Q00535 whole entry): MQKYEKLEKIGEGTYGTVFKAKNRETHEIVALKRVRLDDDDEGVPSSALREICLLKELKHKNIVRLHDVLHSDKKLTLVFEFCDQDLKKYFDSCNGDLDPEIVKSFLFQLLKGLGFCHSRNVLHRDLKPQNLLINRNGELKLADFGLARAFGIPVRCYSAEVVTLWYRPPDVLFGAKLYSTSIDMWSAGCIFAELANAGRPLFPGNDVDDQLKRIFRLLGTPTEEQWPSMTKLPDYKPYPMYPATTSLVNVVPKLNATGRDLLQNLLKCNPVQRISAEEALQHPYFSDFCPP
# T3 sequence (Q15078 whole entry, further chain): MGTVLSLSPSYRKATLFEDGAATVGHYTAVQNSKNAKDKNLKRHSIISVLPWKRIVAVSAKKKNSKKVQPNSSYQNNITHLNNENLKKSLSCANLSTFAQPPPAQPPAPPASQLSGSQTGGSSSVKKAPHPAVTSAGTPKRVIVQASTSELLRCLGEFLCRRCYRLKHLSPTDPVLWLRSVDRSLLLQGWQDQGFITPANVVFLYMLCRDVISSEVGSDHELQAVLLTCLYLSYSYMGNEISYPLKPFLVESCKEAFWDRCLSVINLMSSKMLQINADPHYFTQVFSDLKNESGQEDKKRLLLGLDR
# [18] = target: T3, Cyclin-dependent kinase 5/CDK5 activator 1; test: Inhibition of recombinant full length human His-tagged CDK5/p35 expressed in baculovirus expression system
# [19] = target: Cyclin-dependent kinase 5 (Homo sapiens) (UniProt Q00535); test: Binding affinity to recombinant human GST-tagged inactive CDK5
# Chain of Cyclin-dependent kinase 5 (Homo sapiens) (Q00535 whole entry, looked up): as the sequence (Q00535 whole entry) above
# [20] = target: Dual specificity mitogen-activated protein kinase kinase 1 (Homo sapiens) (UniProt Q02750); test: Inhibition of recombinant full length His-tagged human MEK1 expressed in baculovirus expression system at > 10 uM
# [21] = target: Cyclin-dependent kinase 2/cyclin E1 (Homo sapiens, UniProt P24941); test: Inhibition of human full length C-terminal His6-tagged Cdk2/human full length N-terminal GST-tagged Cyclin E expressed in baculovirus infected Sf21 insect cells after 1 hr by electromobility shift assay
# [22] = system: A-375; test: Antiproliferative activity at human A375 cells expressing BRAF V600E mutant assessed as growth inhibition; type: functional
# [23] = system: Calu-6; test: Antiproliferative activity against human Calu6 cells expressing KRAS Q61K mutant assessed as growth inhibition; type: functional
# [24] = target: T1, Mitogen-activated protein kinase 1; test: Binding affinity to non-phosphorylated biotinylated ERK2 (unknown origin) by SPR analysis
# [25] = target: T1, Mitogen-activated protein kinase 1; test: Binding affinity to MEK-activated phosphorylated biotinylated ERK2 (unknown origin) by SPR analysis
# [26] = target: Dual specificity mitogen-activated protein kinase kinase 1 (Homo sapiens) (UniProt Q02750); test: Inhibition of recombinant full length His-tagged human MEK1 expressed in baculovirus expression system at 1 uM by GST-tagged full length human inactive ERK2 coupled cascade assay relative to control
# [27] = target: Mitogen-activated protein kinase 3 (Homo sapiens) (UniProt P27361); test: Inhibition of GST-tagged recombinant human full length ERK1 expressed in Escherichia coli at 1 uM relative to control
# [28] = target: Mitogen-activated protein kinase kinase kinase 8 (Homo sapiens) (UniProt P41279); test: Inhibition of recombinant GST-tagged human COT catalytic domain expressed in baculovirus expression system at 1 uM by GST-tagged full length human inactive ERK2 expressed in baculovirus expression system coupled cascade assay relative to control
# Chain of Mitogen-activated protein kinase kinase kinase 8 (Homo sapiens) (P41279 whole entry, the tested form may be a part): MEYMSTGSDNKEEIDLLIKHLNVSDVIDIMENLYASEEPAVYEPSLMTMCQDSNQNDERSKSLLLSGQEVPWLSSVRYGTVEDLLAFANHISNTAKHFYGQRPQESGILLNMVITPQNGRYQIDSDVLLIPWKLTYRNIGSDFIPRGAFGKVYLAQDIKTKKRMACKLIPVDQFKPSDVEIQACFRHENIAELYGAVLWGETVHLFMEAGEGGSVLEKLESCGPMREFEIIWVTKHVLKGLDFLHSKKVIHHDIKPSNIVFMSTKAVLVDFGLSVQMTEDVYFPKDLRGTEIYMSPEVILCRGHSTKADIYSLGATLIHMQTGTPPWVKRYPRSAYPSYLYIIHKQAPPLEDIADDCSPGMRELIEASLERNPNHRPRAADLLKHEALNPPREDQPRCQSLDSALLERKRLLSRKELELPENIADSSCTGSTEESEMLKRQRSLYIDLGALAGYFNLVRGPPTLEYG
# [29] = target: Dual specificity mitogen-activated protein kinase kinase 2 (Homo sapiens) (UniProt P36507); test: Inhibition of recombinant full length his-tagged human MEK2 expressed in baculovirus expression system at 1 uM by GST-tagged full length human inactive ERK2 expressed in baculovirus expression system coupled cascade assay relative to control
# [30] = system: RAF proto-oncogene serine/threonine-protein kinase (Homo sapiens), P04049 [Y340D,Y341D]; test: Inhibition of recombinant human GST-tagged c-RAF1 Y340D/Y341D mutant catalytic domain expressed in baculovirus expression system at 1 uM by GST-tagged full length human inactive ERK2 expressed in baculovirus expression system coupled cascade assay relative to control
# [31] = target: Mitogen-activated protein kinase 15 (Homo sapiens) (UniProt Q8TD08); test: Inhibition of recombinant human N-terminal 4xFLAG-tagged/C-terminal His8-fused ERK7 N-terminal domain (M1 to R354 residues) expressed in Sf9 insect cells at 1 uM relative to control
# [32] = target: CDK2/Cyclin O (Homo sapiens) (UniProt P24941+P22674); test: Inhibition of recombinant human full length N-terminal GST-tagged CDK2/Cyclin O expressed in baculovirus infected Sf9 cells at 1 uM relative to control
# [33] = target: T4, CDK2/Cyclin A1 (Homo sapiens) (UniProt P24941+P78396); test: Binding affinity to recombinant human full length N-terminal GST-tagged CDK2/Cyclin A1 expressed in baculovirus infected Sf9 cells at 1 uM relative to control
# [34] = target: Cyclin-dependent kinase 2/cyclin E1 (Homo sapiens) (UniProt P24864+P24941); test: Inhibition of human full length C-terminal His6-tagged Cdk2/human full length N-terminal GST-tagged Cyclin E expressed in baculovirus infected Sf21 insect cells at 1 uM after 1 hr by electromobility shift assay relative to control
# [35] = target: T4, CDK2/Cyclin A1 (Homo sapiens); test: Inhibition of recombinant human full length His-tagged CDK2/Cyclin A expressed in baculovirus expression system at 1 uM relative to control
# [36] = target: Cyclin-dependent kinase 5/CDK5 activator 1 (Homo sapiens) (UniProt Q00535+Q15078); test: Inhibition of recombinant full length human GST/His-tagged CDK5/p25 expressed in baculovirus expression system at 1 uM relative to control
# Chain of Cyclin-dependent kinase 5/CDK5 activator 1 (Homo sapiens) (Q00535 whole entry): as the sequence (Q00535 whole entry) above
# Chain of Cyclin-dependent kinase 5/CDK5 activator 1 (Homo sapiens) (Q15078 99-307 partner limits assumed): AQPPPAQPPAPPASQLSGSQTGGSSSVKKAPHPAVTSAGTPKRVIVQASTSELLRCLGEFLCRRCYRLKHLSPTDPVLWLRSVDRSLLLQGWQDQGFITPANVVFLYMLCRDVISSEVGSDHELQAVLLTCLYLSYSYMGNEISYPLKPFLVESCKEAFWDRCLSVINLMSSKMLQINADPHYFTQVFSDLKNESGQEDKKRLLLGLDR
# [37] = target: NUAK family SNF1-like kinase 1 (Homo sapiens) (UniProt O60285); test: Inhibition of recombinant full length human His-tagged ARK5 expressed in baculovirus expression system at 1 uM relative to control
# Chain of NUAK family SNF1-like kinase 1 (Homo sapiens) (O60285 whole entry): as the sequence (O60285 whole entry) above
# [38] = system: Calu-6; test: Antitumor activity against human Calu6 cells expressing KRAS Q61K mutant xenografted in athymic Nude-Foxn1nu mouse assessed as tumor growth inhibition at 15 mg/kg, po qd adminstered for 21 days and measured twice per week by caliper method relative to control; type: functional; conditions: Calu-6, po, 504 h, read-out: TGI
# [39] = system: Calu-6; test: Antitumor activity against human Calu6 cells expressing KRAS Q61K mutant xenografted in athymic Nude-Foxn1nu mouse assessed as tumor regression at 50 mg/kg, po qd adminstered for 21 days and measured twice per week by caliper method relative to control; type: functional
# [40] = system: Mus musculus; test: Reduction in phosphorylated RSK level in athymic Nude-Foxn1nu mouse xenografted with human Calu6 cells expressing KRAS Q61K mutant at 25 mg/kg, po qd adminstered for 21 days and measured after 0.5 hrs post dose by Western blot analysis relative to control; type: functional; conditions: Calu-6, po
# [41] = system: Mus musculus; test: Reduction in phosphorylated RSK level in athymic Nude-Foxn1nu mouse xenografted with human Calu6 cells expressing KRAS Q61K mutant at 25 mg/kg, po qd adminstered for 21 days and measured after 6 hrs post dose by Western blot analysis relative to control; type: functional; conditions: Calu-6, po
# [42] = system: A549; test: Antitumor activity against human A549 cells harboring KRAS […] mutant xenografted in athymic Nude-Foxn1nu mouse assessed as tumor regression at 25 mg/kg, po bid adminstered for 21 days and measured twice per week in presence of selumetinib by caliper method relative to control; type: functional
# [43] = Fraction unbound in mouse plasma; type: ADME, cell-free
# [44] = Fraction unbound in rat plasma; type: ADME, cell-free
# [45] = Fraction unbound in dog plasma; type: ADME, cell-free, Canis lupus familiaris
# [46] = Fraction unbound in human plasma; type: ADME, cell-free
# [47] = Volume of distribution at steady state in rat; type: ADME; conditions: in vivo, read-out: Vdss
# [48] = Volume of distribution at steady state in dog; type: ADME, Canis lupus familiaris; conditions: in vivo, read-out: Vdss
# [49] = Half life in po dosed rat; type: ADME, organism-based; conditions: in vivo
# [50] = Half life in po dosed dog; type: ADME, organism-based, Canis lupus familiaris; conditions: in vivo
# [51] = Oral bioavailability in rat; type: ADME, organism-based; conditions: in vivo
# [52] = Oral bioavailability in dog; type: ADME, organism-based, Canis lupus familiaris; conditions: in vivo
# [53] = target: Voltage-gated inwardly rectifying potassium channel KCNH2 (Homo sapiens, UniProt Q12809)
# T1 sequence (P28482 whole entry): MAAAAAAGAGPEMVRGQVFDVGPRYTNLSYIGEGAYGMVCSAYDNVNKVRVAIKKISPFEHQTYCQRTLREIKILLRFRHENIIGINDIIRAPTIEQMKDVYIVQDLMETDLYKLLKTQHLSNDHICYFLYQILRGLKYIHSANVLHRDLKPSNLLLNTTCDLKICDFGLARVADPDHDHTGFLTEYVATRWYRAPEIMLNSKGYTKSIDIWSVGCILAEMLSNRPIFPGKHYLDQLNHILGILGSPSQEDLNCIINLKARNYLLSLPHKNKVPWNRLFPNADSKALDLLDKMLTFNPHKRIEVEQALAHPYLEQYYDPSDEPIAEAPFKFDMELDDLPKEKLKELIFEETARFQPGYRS
structure (smiles),measurement,setting,value
Cc1cnc(Nc2ccnn2C)nc1-c1cc2n(c1)CCN(Cc1ccc(F)c(F)c1)C2=O,pIC50,[1],> 9.52
same,pIC50,[2],9.46
same,IC50,[3],20 nM
CC(C)Nc1cc(-c2c[nH]c(C(=O)N[C@H](CO)c3cccc(Cl)c3)c2)c(Cl)cn1,Ka,[4],7.5 ×10⁻⁵ /M/s
same,Ka,[5],1.3 ×10⁻⁶ /M/s
same,Kdiss,[6],7.4 ×10⁻³ /s
same,Kdiss,[7],4.1 ×10⁻⁴ /s
same,T1/2,[8],0.0333 h
same,T1/2,[9],0.583 h
Cc1cccc(CN2C(=O)c3cc(-c4nc(Nc5ccnn5C)ncc4C)cn3C[C@H]2C)n1,Ka,[4],1.3 ×10⁻⁶ /M/s
same,Ka,[5],1.9 ×10⁻⁶ /M/s
same,Kdiss,[6],1 ×10⁻³ /s
same,Kdiss,[7],3.2 ×10⁻⁴ /s
same,T1/2,[8],0.198 h
same,T1/2,[9],0.617 h
Cn1nccc1Nc1nccc(-c2ccn([C@H](CO)c3ccc(Cl)c(F)c3)c(=O)c2)n1,Ka,[5],9.8 ×10⁻⁶ /M/s
same,Kdiss,[6],9.9 ×10⁻³ /s
same,T1/2,[8],0.02 h
same,T1/2,[9],0.0133 h
O=C(Nc1ccc2[nH]nc(-c3ccncc3)c2c1)[C@@H]1CCN(CC(=O)N2CCN(c3ccc(-c4ncccn4)cc3)CC2)C1,Ka,[4],9.4 ×10⁻⁵ /M/s
same,Ka,[5],1.3 ×10⁻⁶ /M/s
same,Kdiss,[6],4.4 ×10⁻⁵ /s
same,T1/2,[8],4.85 h
same,T1/2,[9],2.12 h
COC[C@H]1Cn2cc(-c3nc(Nc4ccnn4C)ncc3C)nc2C(=O)N1Cc1ccc(F)c(F)c1 [TIZATERKIB],pIC50,[1],> 9.52
same,pIC50,[2],9.18
same,IC50,[10],1.7 nM
same,IC50,[3],5.7 nM
same,inhibition,[11],-3.5%
same,inhibition,[12],5.8%
same,inhibition,[13],-2.2%
same,inhibition,[14],-2.5%
same,Activity,[15],0.03 µM
same,pIC50,[16],6.40
same,pIC50,[17],6.52
same,pIC50,[18],6.52
same,Activity,[19],1.9 µM
same,inhibition,[20],inactive
same,pIC50,[21],6.00
same,GI50,[22],60 nM
same,GI50,[23],200 nM
same,pKd,[24],10.00
same,pKd,[25],10.30
same,inhibition,[26],104%
same,inhibition,[27],105%
same,inhibition,[28],103%
same,inhibition,[29],101%
same,inhibition,[30],101%
same,inhibition,[31],99%
same,inhibition,[32],95%
same,Activity,[33],91%
same,inhibition,[34],89%
same,inhibition,[35],87%
same,inhibition,[36],81%
same,inhibition,[37],80%
same,inhibition in vivo at 15 mg/kg,[38],93%
same,Activity,[39],49%
same,inhibition in vivo at 25 mg/kg,[40],100%
same,inhibition in vivo at 25 mg/kg,[41],100%
same,Activity,[42],28%
same,fraction unbound,[43],0.12
same,fraction unbound,[44],0.21
same,fraction unbound,[45],0.44
same,fraction unbound,[46],0.06 to 0.27
same,Vd,[47],1.5 L/kg
same,Vd,[48],1.2 L/kg
same,half-life,[49],2.3 h
same,half-life,[50],5 h
same,bioavailability,[51],30%
same,bioavailability,[52],100%
same,pIC50,[53],4.96
same,Ka,[4],6.5 ×10⁻⁵ /M/s
same,Ka,[5],8.9 ×10⁻⁵ /M/s
same,Kdiss,[6],6 ×10⁻⁵ /s
same,Kdiss,[7],4.5 ×10⁻⁵ /s
same,T1/2,[8],3.23 h
same,T1/2,[9],4.62 h

# From ChEMBL document CHEMBL4321846, “Discovery of a Potent and Selective Oral Inhibitor of ERK1/2 (AZD0364) That Is Efficacious in Both Monotherapy and Combination Therapy in Models of Nonsmall Cell Lung Cancer (NSCLC)” (J Med Chem, 2019)
